Measurements published in patent US20220241236A1, “DIETARY BUTYRATE AND ITS USES” (SOCIETE DES PRODUITS NESTLE S.A., priority 2019, published 2022).
Entries after “also recorded” stand apart in the source; their conditions may differ.

Tests used:
[1] = target: T1, porcine pancreatic lipase (from pancreatin) (Sus scrofa, UniProt P00591); test: In vitro lipolysis in simulated intestinal fluid (SIF model), pH-stat; format: in vitro ADME; conditions: SIF alone; emulsion with 200 mg fat; pH 6.8, 37° C.
T1 construct: pancreatin (Porcine, USP×8, P7585); purchased Sigma-Aldrich P7585; host or cells: porcine pancreas extract (pancreatin)
T1 sequence (P00591 1-450): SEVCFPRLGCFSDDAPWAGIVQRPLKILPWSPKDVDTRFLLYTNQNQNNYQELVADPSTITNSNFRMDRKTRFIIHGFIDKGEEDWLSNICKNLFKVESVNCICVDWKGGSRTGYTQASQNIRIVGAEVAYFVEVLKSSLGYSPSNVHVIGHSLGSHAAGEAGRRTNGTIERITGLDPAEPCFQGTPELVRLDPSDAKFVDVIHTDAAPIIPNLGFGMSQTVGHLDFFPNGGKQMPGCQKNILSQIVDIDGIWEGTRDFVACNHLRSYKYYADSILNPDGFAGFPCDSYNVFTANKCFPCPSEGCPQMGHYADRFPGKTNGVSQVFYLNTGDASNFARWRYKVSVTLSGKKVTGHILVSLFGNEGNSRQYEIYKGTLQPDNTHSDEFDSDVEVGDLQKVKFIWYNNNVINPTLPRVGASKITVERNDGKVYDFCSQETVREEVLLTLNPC
T1 sequence (P02703 23-112 partner): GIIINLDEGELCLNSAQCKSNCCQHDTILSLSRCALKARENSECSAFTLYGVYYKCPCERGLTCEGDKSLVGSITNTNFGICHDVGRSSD
Experimental: (§1) 10 wt % oil in water emulsions stabilised by 0.3 wt % polyoxyethylene sorbitan mono-oleate (Tween® 80) were prepared by mixing the Tween 80 into the oil phase at 40° C., then mixing with the water phase using a magnetic stirrer. An emulsion was then created using a Hielscher UP 400S ultrasonic probe homogeniser equipped with a 5 mm diameter rod-like probe by applying 100% amplitude at 100% cycle for 2 minutes whilst the sample was cooled using ice water.
(§2) The lipid emulsion (2 mL) containing 200 mg of fat was subjected to gastrointestinal in vitro lipolysis. […] For gastric digestion, the sample was incubated for 90 minutes with 8.5 mL of simulated gastric fluid (SGF), which consisted of 150 mM NaCl, 450 U/mL pepsin, 18 U/mL rabbit gastric lipase at 37° C. and a pH of 5.5.
The intestinal digestion step was performed in the pH stat where the pH was kept constant at 6.8 by addition of NaOH (0.05 M). […] The intestinal digestion step starts when the temperature reaches 37±0.5° C. The pH was adjusted to pH 6.8 and after incubation of two minutes at this pH and temperature, a pancreatin solution (5 mM tris, 150 mM NaCl at pH 6.8) was added. […] During the intestinal phase of digestion, the kinetics of digestion were followed using a pH-stat (TIM856, Radiometer) technique and expressed as titratable acid (rather than fatty acid) that was calculated by the equation: […]

[2] = test system: rabbit gastric lipase (RGL) followed by porcine pancreatic lipase (PPL); test: Sequential in vitro digestion SGF (RGL) followed by SIF (PPL), pH-stat; format: in vitro ADME
Experimental: as §1, §2
The intestinal digestion step was performed in the pH stat where the pH was kept constant at 6.8 by addition of NaOH (0.05 M). […] The intestinal digestion step starts when the temperature reaches 37±0.5° C. The pH was adjusted to pH 6.8 and after incubation of two minutes at this pH and temperature, a pancreatin solution (5 mM tris, 150 mM NaCl at pH 6.8) was added. The final composition of the intestinal fluid was 10 mM CaCl2, 12 mM mixed bile salts, 0.75 mM phospholipid, 150 mM NaCl and 4 mM tris(hydroxymethyl)aminomethane buffer. The intestinal digestion step was carried out for 3 hours in a titration manager from Radiometer. During the intestinal phase of digestion, the kinetics of digestion were followed using a pH-stat (TIM856, Radiometer) technique and expressed as titratable acid (rather than fatty acid) that was calculated by the equation:
TA: Total titratable acid released, mmol; VNaoH: volume of NaOH used to titrate the released acid in 3 h, mL.

CCCC(=O)OCC(COC(=O)CCC)OC(=O)CCC [tributyrin]
initial rate of lipolysis [1]: 223 ± 59 µmol/min | initial lipolysis rate in SIF ([2]; SGF-SIF sequential digestion (after pre-exposure to RGL)): 44.1 ± 8.8 µmol/min | extent of gastric lipolysis / hydrolysis in the stomach ([2]; gastric compartment of the model): considerable digestion; also recorded: extensive hydrolysis in the stomach | lipolysis by gastric lipase ([2]; indicated by decreased total fatty acid release in SIF after RGL pre-exposure): ~60%
